# Measurements taken from patent US4814340A, “1,4-diaryl alkane derivatives having insecticidal and acaricidal activity” (priority 1982, dated 1989).
# Legend:
# yearling carps = assay: Test 5 (Fish Toxicity); format: in vivo, carp
# Description: (§1) Compounds (a) through (g) described below were tested as comparative compounds in the same manner as the compounds of the present invention. All the tests were doubly carried out. Namely, each result was expressed by an average value of two data.
# A water tank having a width of 60 cm, a length of 30 cm and a height of 40 cm was filled with water, and 10 yearling carps having a body length of about 5 cm were set free in the tank and adapted to the environment in the tank. An acetone solution of a test compound was applied into water so as to become a concentration of 1 or 0.1 ppm in water by adding said acetone solution at a rate of one part by volume per 100 parts by volume of water. 48 hours after, the number of killed and living carps was counted and the effect of a test compound on carps was examined.
# [1] = test system: common cutworm (third-instar larvae); assay: Test 1 (Effect on Common Cutworm); format: in vivo; conditions: Spodoptera litura, 48 hours, third-instar larvae, read-out: Mortality (%)
# Description: as §1
# The emulsifiable concentrate of the test compound, prepared according to the method described in Formulation Example 1, was diluted with water to a specified concentration. Sweet potato leaves were sufficiently immersed in the dilution. The sweet potato leaves were dried and placed in a plastic cup having a diameter of 10 cm, and 10 third-instar larvae of common cutworm were set free in each cup. 48 hours after, the numbers of killed and living larvae were counted and the mortality was calculated.
# [2] = test system: green rice leafhopper (female adults); assay: Test 2 (Effect on Green Rice Leafhopper); format: in vivo; conditions: Nephotettix cincticeps, 48 hours, female adults, read-out: Mortality (%)
# Description: as §1
# Four or five seedlings of paddy rice with three leaves were bundled, and thereon the same dilution of the emulsifiable concentrate as used in Test 1 was sprayed in an amount of 3 ml. The bundle was dried and covered with a metal net cylinder, and 10 female adults of green rice leafhopper were set free in the cylinder. 48 hours after, the number of killed adults was counted.
# [3] = test system: two-spotted spider mite (adults); assay: Test 4 (Effect on Two-Spotted Spider Mite); format: in vivo; conditions: Tetranychus urticae; 200 ppm; 24 hours; adults; read-out: Mortality (%)
# Description: as §1
# A kidney bean leaf disc (20 mm in diameter) perforated with a cork borer was placed on water-impregnated absorbent cotton, and thereon 20 adults of two-spotted spider mite were set free, and the resulting set was allowed to stand around the clock. The same dilution of the emulsifiable concentrate of a test compound having a concentration of 200 ppm as used in Test 1 and Test 2, was applied by an applicator having a diameter of 20 cm and a height of 60 cm in an amount of 3 ml. 24 hours after, the number of killed adults was counted.
# [4] = test system: German cockroach (female adults); assay: Test 3 (Effect on German Cockroach); format: in vivo, Blatella germanica (German cockroach); conditions: Blattella germanica, 48 hours, female adults, read-out: Mortality (%); for mortality at 1 mg/m2: 1 mg/m^2; for mortality at 5 mg/m2: 5 mg/m^2
# Description: as §1
# One ml of an acetone solution of a test compound of a specified concentration was poured in a high Petri dish having a diameter of 9 cm and a height of 9 cm. The Petri dish was allowed to stand, and thereby the acetone was evaporated. The upper part of the inner wall of the Petri dish was treated with butter to prevent the adults of German cockroach from escaping from the Petri dish. 10 female adults of German cockroach were set free in each Petri dish. 48 hours after, the number of killed adults was counted.
# [5] = test system: green rice leafhopper (female adults); assay: Test 2 (Effect on Green Rice Leafhopper); format: in vivo; conditions: 48 hours, marked * in Table 3
# plants of Solanacede = assay: phytotoxicity to plants of Solanacede
Compound,Mortality(%) 48 Hours After (yearling carps; 0.1 ppm in water) [%],Mortality(%) 48 Hours After (yearling carps; 1 ppm in water) [%],mortality at 20 ppm [1] [%],mortality at 100 ppm [1] [%],mortality at 20 ppm [2] [%],mortality at 100 ppm [2] [%],mortality at 200 ppm [3] [%],mortality at 1 mg/m2 [4] [%],mortality at 5 mg/m2 [4] [%],Rate of Number of Adults KnockedDown ([5]; 20 ppm) [%],Rate of Number of Adults KnockedDown ([5]; 100 ppm) [%],phytotoxicity to plants of Solanacede (plants of Solanacede)
CC(C)(CCCc1ccc(F)c(Oc2ccccc2)c1)c1ccc(Cl)cc1 [Compound 20],0,0,100,100,100,100,100,100,100,,,
"CCOc1ccc(C(C)(C)CCCN2C(=O)C3=C(CCCC3)C2=O)cc1 [Compound 12, 1-(3,4,5,6-Tetrahydrophthalimido)-4-(4-ethoxyphenyl)-4-methylpentane]",,,,,,,,,,40,80,
"CC(C)C(C(=O)OC(C#N)c1cccc(Oc2ccccc2)c1)c1ccc(Cl)cc1 (stereo not shown) [(g), Fenvalerate, reference compound]",100,100,,,,,,,,,,observed
1-(3-Benzoylphenyl)-4-(4-chlorophenyl)-4-methylpentane [Compound 11],,,,,,,,,,60,90,
CCOc1ccc(C(C)(C)CCCc2ccc(F)c(Oc3ccccc3)c2)cc1Cl [Compound 57],0,0,100,100,100,100,91,100,100,,,
